# Patent US10030016B2 (Sunesis Pharmaceuticals, Inc., priority 2009, dated 2018)
# Read-outs that look alike come from different tables or passages of the source.
# Experiments:
# PDK1 = PDK1 (Homo sapiens (Human), UniProt O15530); test: PDK1 kinase assay (coupled PDK1/AKT/FAM-crosstide assay, IMAP fluorescence polarization); type: biochemical
# Outline: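 PDK1 activity is measured indirectly through activation of a PIFtide-fused AKT2 construct that phosphorylates FAM-crosstide (100 nM). The reaction uses 0.75 nM PDK1, 40 μM ATP, 30 min, 25° C, with IMAP polarization detection.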
# [1] = system: phospho-akt (Thr308) in PC-3 cells; test: Inhibition of phospho-akt (Thr308) in PC-3 cells, MSD phospho-akt 308 ELISA kit; type: cell-based; details: Homo sapiens
# Outline: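 Read-out is MSD electrochemiluminescence of Akt phosphorylated at Thr308 in lysates of PC-3 cells treated 2 h with compound in serum-free medium. Wortmannin at 5 μM defined the low control and DMSO the high control.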
# [2] = inhibition of phospo-PDK1 in vitro
# [3] = inhibition of P308 Akt in PC-3 cells, 2 hours, no serum, MSD, read-out: EC50
# [4] = inhibition of P308 Akt in PC-3 cells using MSD, 2 hours, no serum, read-out: EC50
# [5] = PC-3, 2 h, inhibition of P308 Akt in PC-3 cells using MSD, 2 hours, no serum, read-out: EC50
# Sequence of PDK1 (O15530 51-359): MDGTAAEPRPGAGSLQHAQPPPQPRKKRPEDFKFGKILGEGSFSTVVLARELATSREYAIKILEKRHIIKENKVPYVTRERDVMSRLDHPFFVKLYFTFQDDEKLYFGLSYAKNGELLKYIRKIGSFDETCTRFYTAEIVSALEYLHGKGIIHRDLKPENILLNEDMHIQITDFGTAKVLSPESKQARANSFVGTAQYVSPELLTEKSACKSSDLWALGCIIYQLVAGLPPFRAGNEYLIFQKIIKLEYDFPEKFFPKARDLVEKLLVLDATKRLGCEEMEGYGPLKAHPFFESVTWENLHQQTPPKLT
SMILES,IC50 (PDK1; [2]) [nM],"EC50 [1, 3] [nM]",other results
"C[C@H](COc1ccc2c(c1)NC(=O)/C2=C\c1cnc[nH]1)Nc1ncccc1C(=O)NCc1ccc(F)c(F)c1 [Example 24, (R,Z)-2-(1-(3-((1H-imidazol-5-yl)methylene)-2-oxoindolin-6-yloxy)propan-2-ylamino)-N-(3,4-difluorobenzyl)nicotinamide]",< 100,1000 to 10000,–
"C[C@H](NC(=O)c1nc(C#N)cnc1NCc1ccc(-c2cnc3[nH]nc(N)c3c2)cc1)c1ccc(F)c(F)c1 [Example 25, (S)-3-(4-(3-amino-1H-pyrazolo[3,4-b]pyridin-5-yl)benzylamino)-6-cyano-N-(1-(3,4-difluorophenyl)ethyl)pyrazine-2-carboxamide]",< 100,< 1000,–
"N#Cc1cnc(NCc2ccc(-c3cnc4[nH]nc(N)c4c3)cc2)c(C(=O)NCc2cncc(F)c2)n1 [Example 26, 3-(4-(3-amino-1H-pyrazolo[3,4-b]pyridin-5-yl)benzylamino)-6-cyano-N-((5-fluoropyridin-3-yl)methyl)pyrazine-2-carboxamide]",< 100,< 1000,–
"C[C@H](NC(=O)c1nc(C#N)cnc1NCc1ccc(-c2cn(C)c3ncnc(N)c23)cc1)c1ccc(F)c(F)c1 [Example 27, (S)-3-(4-(4-amino-7-methyl-7H-pyrrolo[2,3-d]pyrimidin-5-yl)benzylamino)-6-cyano-N-(1-(3,4-difluorophenyl)ethyl)pyrazine-2-carboxamide]",< 100,< 1000,–
"Cn1cc(-c2ccc(CNc3ncc(C#N)nc3C(=O)NCc3cncc(F)c3)cc2)c2c(N)ncnc21 [Example 28, 3-(4-(4-amino-7-methyl-7H-pyrrolo[2,3-d]pyrimidin-5-yl)benzylamino)-6-cyano-N-((5-fluoropyridin-3-yl)methyl)pyrazine-2-carboxamide]",< 100,< 1000,–
"N#Cc1cnc(NCc2ccc(-c3cnc4[nH]nc(N)c4c3)cc2)c(C(=O)Nc2ccc(F)cc2)n1 [Example 29, 3-(4-(3-amino-1H-pyrazolo[3,4-b]pyridin-5-yl)benzylamino)-6-cyano-N-(4-fluorophenyl) pyrazine-2-carboxamide]",< 100,< 1000,–
"Nc1n[nH]c2ncc(-c3ccc(CNc4ncc(C(F)(F)F)cc4C(=O)N4CCc5cc(F)ccc54)cc3)cc12 [Example 30, (2-(4-(3-amino-1H-pyrazolo[3,4-b]pyridin-5-yl)benzylamino)-5-(trifluoromethyl)pyridin-3-yl)(5-fluoroindolin-1-yl)methanone]",< 100,< 1000,–
"N#Cc1cnc(NCc2ccc(-c3cnc4[nH]nc(N)c4c3)cc2)c(C(=O)NCc2ccc(F)c(F)c2)n1 [Example 31, 3-(4-(3-amino-1H-pyrazolo[3,4-b]pyridin-5-yl)benzylamino)-6-cyano-N-(3,4-difluorobenzyl) pyrazine-2-carboxamide]",< 100,< 1000,–
"C[C@H](NC(=O)c1nc(C#N)cnc1NCc1ccc(-c2cnc3[nH]nc(N)c3c2)cc1)c1ccc(F)cc1 [Example 32, (S)-3-(4-(3-amino-1H-pyrazolo[3,4-b]pyridin-5-yl)benzylamino)-6-cyano-N-(1-(4-fluorophenyl)ethyl) pyrazine-2-carboxamide]",< 100,< 1000,–
"N#Cc1cnc(NCc2ccc(-c3cnc4[nH]nc(N)c4c3)cc2)c(C(=O)NCc2ccc(F)cc2)n1 [Example 33, 3-(4-(3-amino-1H-pyrazolo[3,4-b]pyridin-5-yl)benzylamino)-6-cyano-N-(4-fluorobenzyl) pyrazine-2-carboxamide]",< 100,< 1000,–
"N#Cc1cnc(NCc2ccc(-c3cnc(N)cn3)cc2)c(C(=O)Nc2ccc(F)cc2)n1 [Example 34, 3-(4-(5-aminopyrazin-2-yl)benzylamino)-6-cyano-N-(4-fluorophenyl) pyrazine-2-carboxamide]",< 100,< 1000,–
"N#Cc1cnc(NCc2ccc(-c3cnc4[nH]nc(N)c4c3)cc2)c(C(=O)Nc2ccc(F)cc2)c1 [Example 35, 2-(4-(3-amino-1H-pyrazolo[3,4-b]pyridin-5-yl)benzylamino)-5-cyano-N-(4-fluorophenyl) nicotinamide]",< 100,< 1000,–
"CCOC(=O)Nc1n[nH]c2ncc(-c3ccc(CNc4ncc(C#N)nc4C(=O)N[C@@H](C)c4ccc(F)c(F)c4)cc3)cc12 [Example 36, (S)-ethyl 5-(4-((5-cyano-3-(1-(3,4-difluorophenyl)ethylcarbamoyl)pyrazin-2-ylamino)methyl)phenyl)-1H-pyrazolo[3,4-b]pyridin-3-ylcarbamate]",< 100,< 1000,–
"C[C@H](NC(=O)c1nc(C#N)cnc1NCc1ccc(-c2cnc3[nH]nc(NC(=O)c4ccccc4)c3c2)cc1)c1ccc(F)c(F)c1 [Example 37, (S)-3-(4-(3-benzamido-1H-pyrazolo[3,4-b]pyridin-5-yl)benzylamino)-6-cyano-N-(1-(3,4-difluorophenyl)ethyl)pyrazine-2-carboxamide]",< 100,< 1000,–
"Nc1n[nH]c2ncc(-c3ccc(CNc4ncc(C(F)(F)F)cc4C(=O)Nc4ccc(F)cc4)cc3)cc12 [Example 38, 2-[4-(3-Amino-1H-pyrazolo[3,4-b]pyridin-5-yl)-benzylamino]-N-(4-fluoro-phenyl)-5-trifluoromethyl-nicotinamide]",< 100,< 1000,–
"Nc1n[nH]c2ncc(-c3ccc(CNc4ncc(C(F)(F)F)nc4C(=O)Nc4ccc(F)cc4)cc3)cc12 [Example 39, 3-(4-(3-amino-1H-pyrazolo[3,4-b]pyridin-5-yl)benzylamino)-N-(4-fluorophenyl)-6-(trifluoromethyl)pyrazine-2-carboxamide]",< 100,< 1000,–
"Nc1n[nH]c2ncc(-c3ccc(CNc4nccc5ncn(Cc6ccc(F)c(F)c6)c(=O)c45)cc3)cc12 [Example 40, 5-(4-(3-amino-1H-pyrazolo[3,4-b]pyridin-5-yl)benzylamino)-3-(3,4-difluorobenzyl)pyrido[4,3-d]pyrimidin-4(3H)-one]",< 100,< 1000,–
"C[C@H](NC(=O)c1cc(C#N)cnc1NCc1ccc(-c2c[nH]c3ncnc(N)c23)cc1)c1ccc(F)cc1 [Example 41, 2-[4-(4-Amino-7H-pyrrolo[2,3-d]pyrimidin-5-yl)-benzylamino]-5-cyano-N-[(S)-1-(4-fluoro-phenyl)-ethyl]-nicotinamide]",–,–,"IC50 (PDK1; inhibition of PDK1 in vitro): < 100 nM; EC50 [1, 4]: < 1000 nM"
"C[C@H](NC(=O)c1nc(C#N)cnc1N[C@H](C)c1ccc(-c2cnc3[nH]nc(N)c3c2)cc1)c1ccc(F)c(F)c1 [Example 42, 3-((R)-1-(4-(3-amino-1H-pyrazolo[3,4-b]pyridin-5-yl)phenyl)ethylamino)-6-cyano-N—((S)-1-(3,4-difluorophenyl)ethyl)pyrazine-2-carboxamide]",–,–,"IC50 (PDK1; inhibition of PDK1 in vitro): < 100 nM; EC50 [1, 4]: < 1000 nM"
"N#Cc1cnc(NCc2ccc(-c3c[nH]c4ncnc(N)c34)cc2)c(-c2ncco2)c1 [Example 43, 6-(4-(4-amino-7H-pyrrolo[2,3-d]pyrimidin-5-yl)benzylamino)-5-(oxazol-2-yl)nicotinonitrile]",–,–,"IC50 (PDK1; inhibition of PDK1 in vitro): 1000 to 5000 nM; EC50 [1, 4]: 1000 to 10000 nM"
"COC(=O)C[C@@H](Nc1ncc(C#N)cc1C(=O)N[C@@H](C)c1ccc(F)cc1)c1ccc(-c2c[nH]c3ncnc(N)c23)cc1 [Example 44, (R)-methyl 3-(4-(4-amino-7H-pyrrolo[2,3-d]pyrimidin-5-yl)phenyl)-3-(5-cyano-3-((S)-1-(4-fluorophenyl)ethylcarbamoyl)pyridin-2-ylamino)propanoate]",–,–,"IC50 (PDK1): < 100 nM; EC50 ([1]; PC-3, 2 h): 1000 to 10000 nM"
"C[C@H](NC(=O)c1cc(C#N)cnc1N[C@H](CC(=O)O)c1ccc(-c2c[nH]c3ncnc(N)c23)cc1)c1ccc(F)cc1 [Example 45, (R)-3-(4-(4-amino-7H-pyrrolo[2,3-d]pyrimidin-5-yl)phenyl)-3-(5-cyano-3-((S)-1-(4-fluorophenyl)ethylcarbamoyl)pyridin-2-ylamino)propanoic acid]",–,–,"IC50 (PDK1; inhibition of PDK1 in vitro): 100 to 1000 nM; EC50 [1, 5]: > 10000 nM"
"C[C@H](NC(=O)c1cc(C#N)cnc1N[C@H](CC(N)=O)c1ccc(-c2c[nH]c3ncnc(N)c23)cc1)c1ccc(F)cc1 [Example 46, 2-((R)-3-amino-1-(4-(4-amino-7H-pyrrolo[2,3-d]pyrimidin-5-yl)phenyl)-3-oxopropylamino)-5-cyano-N—((S)-1-(4-fluorophenyl)ethyl)nicotinamide]",–,–,"IC50 (PDK1; inhibition of PDK1 in vitro): < 100 nM; EC50 [1, 4]: > 10000 nM"
"CNC(=O)C[C@@H](Nc1ncc(C#N)cc1C(=O)N[C@@H](C)c1ccc(F)cc1)c1ccc(-c2c[nH]c3ncnc(N)c23)cc1 [Example 47, 2-((R)-1-(4-(4 - amino-7H-pyrrolo[2,3-d]pyrimidin-5-yl)phenyl)-3-(methylamino)-3-oxopropylamino)-5-cyano-N-((S)-1-(4-fluorophenyl)ethyl)nicotinamide]",–,–,"IC50 (PDK1; inhibition of PDK1 in vitro): < 100 nM; EC50 [1, 4]: > 10000 nM"
"C[C@H](NC(=O)c1cc(C#N)cnc1N[C@H](CC(=O)N(C)C)c1ccc(-c2c[nH]c3ncnc(N)c23)cc1)c1ccc(F)cc1 [Example 48, 2-((R)-1-(4-(4 - amino-7H-pyrrolo[2,3-d]pyrimidin-5-yl)phenyl)-3-(dimethylamino)-3-oxopropylamino)-5-cyano-N-((S)-1-(4-fluorophenyl)ethyl)nicotinamide]",–,–,"IC50 (PDK1; inhibition of PDK1 in vitro): 100 to 1000 nM; EC50 [1, 5]: 1000 to 10000 nM"
